Several values for one entry are separate records, joined by “and”; a condition that tells them apart may be missing. Equal values may be shown once. Toxic doses and inconclusive results are not listed.
Test system: L1210 leukemia ip in BDF1 mice, survival T/C
Experiment: NCI In Vivo Anticancer Drug Screen. Data for tumor model L1210 Leukemia (intraperitoneal) in B6D2F1 (BDF1) mice
Conditions: endpoint: mean survival time, higher = longer survival
In short: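 Value reflects the ratio of survival in compound-treated mice to survival in vehicle-treated controls, with both groups carrying the same transplanted tumor.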

[1] = dose: 100.0 mg/kg/injection, schedule: Q04DX003 (ip), vehicle: saline with Tween-80
[2] = dose: 200.0 mg/kg/injection, schedule: Q04DX003 (ip), vehicle: saline with Tween-80
[3] = dose: 400.0 mg/kg/injection, schedule: Q04DX003 (ip), vehicle: saline with Tween-80
[4] = dose: 50.0 mg/kg/injection, schedule: Q01DX009 (ip), vehicle: saline with Tween-80
[5] = dose: 100.0 mg/kg/injection, schedule: Q01DX009 (ip), vehicle: saline with Tween-80
[6] = dose: 200.0 mg/kg/injection, schedule: Q01DX009 (ip), vehicle: saline with Tween-80
[7] = dose: 100.0 mg/kg/injection, schedule: Q01DX009 (ip), vehicle: Klucel (hydroxypropylcellulose) (HPC)
[8] = dose: 200.0 mg/kg/injection, schedule: Q01DX009 (ip), vehicle: Klucel (hydroxypropylcellulose) (HPC)
[9] = dose: 400.0 mg/kg/injection, schedule: Q01DX009 (ip), vehicle: Klucel (hydroxypropylcellulose) (HPC)
[10] = dose: 100.0 mg/kg/injection, schedule: Q01DX001 (ip), vehicle: saline
[11] = dose: 200.0 mg/kg/injection, schedule: Q01DX001 (ip), vehicle: saline
[12] = dose: 400.0 mg/kg/injection, schedule: Q01DX001 (ip), vehicle: saline
[13] = dose: 50.0 mg/kg/injection, schedule: Q01DX001 (ip), vehicle: saline

## OC1CC2CC1C=C2c1ccccc1 (stereo not drawn)
[1]
  T/C: 102 % of control
[2]
  T/C: 86 % of control
[3]
  T/C: 91 % of control

## CCOC(=O)Cc1cc(OC)c(OC)c(OC)c1
dose: 100.0 mg/kg/injection, schedule: Q04DX003 (ip), vehicle: acetone
  T/C: 98 % of control
dose: 200.0 mg/kg/injection, schedule: Q04DX003 (ip), vehicle: acetone
  T/C: 94 % of control

## O=c1c2cccc3cccc(c32)c2nc3ccccc3n12
dose: 6.25 mg/kg/injection, schedule: Q01DX009 (ip), vehicle: saline with Tween-80
  T/C: 120 % of control
dose: 12.5 mg/kg/injection, schedule: Q01DX009 (ip), vehicle: saline with Tween-80
  T/C: 116 % of control
dose: 25.0 mg/kg/injection, schedule: Q01DX009 (ip), vehicle: saline with Tween-80
  T/C: 100 % of control
[1]
  T/C: 104 % of control
[2]
  T/C: 103 % of control

## O=C(O)CC(O)c1ccccc1 (stereo not drawn)
dose: 75.0 mg/kg/injection, schedule: Q01DX001 (ip), vehicle: saline
  T/C: 109 % of control
dose: 150.0 mg/kg/injection, schedule: Q01DX001 (ip), vehicle: saline
  T/C: 93 % of control
dose: 300.0 mg/kg/injection, schedule: Q01DX001 (ip), vehicle: saline
  T/C: 112 % of control

## CC1(C)CC(=O)c2c(OC(=O)N(CCCl)CCCl)cc(OC(=O)N(CCCl)CCCl)cc2O1
dose: 25.0 mg/kg/injection, schedule: Q04DX002 (ip), vehicle: alcohol
  T/C: 94 % of control
dose: 50.0 mg/kg/injection, schedule: Q04DX002 (ip), vehicle: alcohol
  T/C: 113 % of control
dose: 100.0 mg/kg/injection, schedule: Q04DX002 (ip), vehicle: alcohol
  T/C: 94 % of control
dose: 200.0 mg/kg/injection, schedule: Q04DX002 (ip), vehicle: alcohol
  T/C: 97 % of control
dose: 400.0 mg/kg/injection, schedule: Q04DX002 (ip), vehicle: alcohol
  T/C: 90 % of control

## O=C(/C=C/C=C/c1ccccc1)c1ccccc1O
[4]
  T/C: 91 % of control
[5]
  T/C: 87 % of control and 89 % of control
[1]
  T/C: 94 % of control
[6]
  T/C: 94 % of control
[2]
  T/C: 91 % of control
dose: 400.0 mg/kg/injection, schedule: Q01DX009 (ip), vehicle: saline with Tween-80
  T/C: 89 % of control
[3]
  T/C: 93 % of control

## O=NN(CCCl)C(=O)Nc1cccc(O)c1
dose: 4.5 mg/kg/injection, schedule: Q01DX009 (ip), vehicle: other
  T/C: 123 % of control
dose: 7.0 mg/kg/injection, schedule: Q01DX009 (ip), vehicle: other
  T/C: 176 % of control
dose: 11.0 mg/kg/injection, schedule: Q01DX009 (ip), vehicle: other
  T/C: 155 % of control
dose: 17.0 mg/kg/injection, schedule: Q01DX009 (ip), vehicle: carboxymethylcellulose (CMC)
  T/C: 170 % of control
dose: 17.0 mg/kg/injection, schedule: Q01DX009 (ip), vehicle: other
  T/C: 154 % of control
dose: 26.0 mg/kg/injection, schedule: Q01DX009 (ip), vehicle: carboxymethylcellulose (CMC)
  T/C: 210 % of control
dose: 26.0 mg/kg/injection, schedule: Q01DX009 (ip), vehicle: other
  T/C: 184 % of control
dose: 30.0 mg/kg/injection, schedule: Q01DX001 (ip), vehicle: carboxymethylcellulose (CMC)
  T/C: 154 % of control
dose: 40.0 mg/kg/injection, schedule: Q01DX009 (ip), vehicle: carboxymethylcellulose (CMC)
  T/C: 156 % of control
dose: 40.0 mg/kg/injection, schedule: Q01DX009 (ip), vehicle: other
  T/C: 170 % of control
dose: 60.0 mg/kg/injection, schedule: Q01DX001 (ip), vehicle: carboxymethylcellulose (CMC)
  T/C: 154 % of control and 168 % of control
dose: 60.0 mg/kg/injection, schedule: Q01DX009 (ip), vehicle: other
  T/C: 121 % of control
dose: 75.0 mg/kg/injection, schedule: Q01DX001 (ip), vehicle: carboxymethylcellulose (CMC)
  T/C: 118 % of control

## O=[N+]([O-])c1ccc(C(Br)C(Br)c2ccccc2Br)cc1 (stereo not drawn)
[7]
  T/C: 98 % of control
dose: 100.0 mg/kg/injection, schedule: Q04DX003 (ip), vehicle: saline
  T/C: 96 % of control
[8]
  T/C: 102 % of control
dose: 200.0 mg/kg/injection, schedule: Q04DX003 (ip), vehicle: saline
  T/C: 98 % of control
[9]
  T/C: 98 % of control
dose: 400.0 mg/kg/injection, schedule: Q04DX003 (ip), vehicle: saline
  T/C: 96 % of control

## O=NN1CCC1
[10]
  T/C: 97 % of control
[11]
  T/C: 93 % of control
[12]
  T/C: 93 % of control

## ClCCCCOCC1CCCO1 (stereo not drawn)
[5]
  T/C: 100 % of control
[6]
  T/C: 107 % of control

## CC(C)(C)C1=CC(=O)C(C(C)(C)C)=CC1=O
[4]
  T/C: 104 % of control
[5]
  T/C: 98 % of control
[6]
  T/C: 95 % of control

## CC(C)CCS(=O)c1ccccc1 (stereo not drawn)
dose: 75.0 mg/kg/injection, schedule: Q01DX001 (ip), vehicle: acetone
  T/C: 91 % of control
dose: 75.0 mg/kg/injection, schedule: Q04DX003 (ip), vehicle: acetone
  T/C: 100 % of control
dose: 150.0 mg/kg/injection, schedule: Q01DX001 (ip), vehicle: acetone
  T/C: 100 % of control
dose: 150.0 mg/kg/injection, schedule: Q04DX003 (ip), vehicle: acetone
  T/C: 97 % of control
dose: 300.0 mg/kg/injection, schedule: Q01DX001 (ip), vehicle: acetone
  T/C: 98 % of control
dose: 300.0 mg/kg/injection, schedule: Q04DX003 (ip), vehicle: acetone
  T/C: 89 % of control

## O=C(Nc1ccc(S(=O)(=O)F)cc1)/C(=C/c1ccc([N+](=O)[O-])cc1)CCc1ccccc1
[1]
  T/C: 105 % of control
[2]
  T/C: 97 % of control
[3]
  T/C: 94 % of control

## Cc1ccc(S(=O)(=O)NC(=O)NCc2cccc(Cl)c2)cc1
[7]
  T/C: 101 % of control
[8]
  T/C: 101 % of control
[9]
  T/C: 96 % of control

## COC(=O)c1cc2ccccc2c2c1OCN(C)C2
[13]
  T/C: 113 % of control
[10]
  T/C: 110 % of control

## CCOC(=O)C(C)P(=O)(OCC)OCC (stereo not drawn)
dose: 100.0 mg/kg/injection, schedule: Q01DX009 (ip), vehicle: saline
  T/C: 112 % of control
dose: 200.0 mg/kg/injection, schedule: Q01DX009 (ip), vehicle: saline
  T/C: 104 % of control
dose: 400.0 mg/kg/injection, schedule: Q01DX009 (ip), vehicle: saline
  T/C: 109 % of control

## C[OH+]c1ccccc1C(=O)O.C[OH+]c1ccccc1C(=O)O.[Ni]
dose: 25.0 mg/kg/injection, schedule: Q04DX002 (ip), vehicle: saline with Tween-80
  T/C: 97 % of control and 103 % of control
dose: 50.0 mg/kg/injection, schedule: Q04DX002 (ip), vehicle: saline with Tween-80
  T/C: 100 % of control and 107 % of control
dose: 200.0 mg/kg/injection, schedule: Q04DX002 (ip), vehicle: saline with Tween-80
  T/C: 120 % of control and 90 % of control

## C=C(Br)CN(C)C(C)=O
dose: 6.25 mg/kg/injection, schedule: Q01DX009 (ip), vehicle: saline
  T/C: 98 % of control
dose: 6.25 mg/kg/injection, schedule: Q04DX003 (ip), vehicle: saline
  T/C: 101 % of control
dose: 12.5 mg/kg/injection, schedule: Q01DX009 (ip), vehicle: saline
  T/C: 98 % of control
dose: 12.5 mg/kg/injection, schedule: Q04DX003 (ip), vehicle: saline
  T/C: 106 % of control
dose: 25.0 mg/kg/injection, schedule: Q01DX009 (ip), vehicle: saline
  T/C: 93 % of control
dose: 25.0 mg/kg/injection, schedule: Q04DX003 (ip), vehicle: saline
  T/C: 98 % of control

## O=C(c1ccc([N+](=O)[O-])cc1)N1CC1Cc1ccccc1 (stereo not drawn)
dose: 100.0 mg/kg/injection, schedule: Q01DX001 (ip), vehicle: Klucel (hydroxypropylcellulose) (HPC)
  T/C: 89 % of control
dose: 200.0 mg/kg/injection, schedule: Q01DX001 (ip), vehicle: Klucel (hydroxypropylcellulose) (HPC)
  T/C: 89 % of control

## Nc1ccccc1C(=O)NO
[10]
  T/C: 98 % of control
[11]
  T/C: 97 % of control
[12]
  T/C: 97 % of control

## CCOC(=O)C1CN(Cc2ccccc2)C(=O)C1=O (stereo not drawn)
[13]
  T/C: 102 % of control
dose: 75.0 mg/kg/injection, schedule: Q01DX009 (ip), vehicle: saline
  T/C: 101 % of control
[10]
  T/C: 102 % of control
dose: 150.0 mg/kg/injection, schedule: Q01DX009 (ip), vehicle: saline
  T/C: 99 % of control
[11]
  T/C: 102 % of control
dose: 300.0 mg/kg/injection, schedule: Q01DX009 (ip), vehicle: saline
  T/C: 99 % of control
[12]
  T/C: 114 % of control

## CCC[CH2][Sn]([CH2]CCC)=[N]S(=O)(=O)c1ccc(Cl)c(C)c1
dose: 5.0 mg/kg/injection, schedule: Q01DX001 (ip), vehicle: saline
  T/C: 98 % of control
dose: 10.0 mg/kg/injection, schedule: Q01DX001 (ip), vehicle: saline
  T/C: 98 % of control
dose: 20.0 mg/kg/injection, schedule: Q01DX001 (ip), vehicle: saline
  T/C: 109 % of control

From PubChem BioAssay AID248 (DTP/NCI, 2004)
